“Also recorded” adds a separate entry of the source. Starred links: 1 amine or outer side, 2 acyl side, 3 side chain; linkers in the order of their positions; H or OH if unused. Positions of bridges follow the written chain, without caps; N, C: chain ends. Non-standard residues stand in square brackets, D forms with d. Residues, ends and D or L forms follow the SMILES beside them. Trimesoyl = O=C(c1cc(C(=O)[*:2])cc(C(=O)[*:3])c1)[*:1]; d2Nal = N[C@H](Cc1ccc2ccccc2c1)C(=O)O; Dap = NC[C@H](N)C(=O)O
Legend:
[1] = test system: E. chaffeensis; assay: E. chaffeensis infection of THP-1 cells, qPCR of 16S rRNA gene normalized to human actin; format: cell-based, Ehrlichia chaffeensis
[2] = biological target: T1, Etf-1 (Ehrlichia chaffeensis, UniProt Q2GG12); assay: FP assay of Etf-1 binding with FAM-labeled peptides
[3] = test system: E. chaffeensis; assay: morphological examination of E. chaffeensis infection of THP-1 cells by Diff-Quik staining
[4] = biological target: T1, Etf-1; assay: immunofluorescence of native Etf-1 localization in E. chaffeensis-infected RF/6A cells; format: cell-based; conditions: 2 days
Method: Fig. 7. […] RF/6A cells were seeded onto a coverglass in a 12-well plate for 1 h, and infected with E. chaffeensis (Ech) at ∼30 MOI. […] Cells were fixed in 4% PFA and labeled with rabbit anti-Etf-1 IgG and AF488-conjugated goat anti-rabbit secondary antibody in PGS for 1 h each at RT. DAPI was used to label both host-cell nuclei and Ehrlichia DNAs (pseudocolored in green), and E. chaffeensis organisms were shown as green-colored, round to pleomorphic cocci (arrowhead in panel B) that further clustered as spherical morulae. Thin arrows, E. chaffeensis-containing inclusion; open arrows, filamentous-shaped mitochondria. DeltaVision microscope. […] (D) Percentage of E. chaffeensis inclusions colocalized with Etf-1 were quantified by counting ∼20 cells per group from three independent experiments.
For mitochondria localization analysis, RF/6A cells were seeded onto a cover glass in a 12-well plate for 3 h, then infected with E. chaffeensis at ∼30 MOI. […] Host-cell and Ehrlichial DNAs were stained with 300 nM DAPI, and fluorescence with differential interference contrast images were observed and captured with a DeltaVision deconvolution microscope (Applied Precision, Issaquah, WA, USA). Percentages of Etf-1 protein colocalization with macrocyclic peptides or E. chaffeensis inclusions were quantified by counting 10–20 cells per group from three independent experiments.

T1 sequence (Q2GG12 entry or part of it): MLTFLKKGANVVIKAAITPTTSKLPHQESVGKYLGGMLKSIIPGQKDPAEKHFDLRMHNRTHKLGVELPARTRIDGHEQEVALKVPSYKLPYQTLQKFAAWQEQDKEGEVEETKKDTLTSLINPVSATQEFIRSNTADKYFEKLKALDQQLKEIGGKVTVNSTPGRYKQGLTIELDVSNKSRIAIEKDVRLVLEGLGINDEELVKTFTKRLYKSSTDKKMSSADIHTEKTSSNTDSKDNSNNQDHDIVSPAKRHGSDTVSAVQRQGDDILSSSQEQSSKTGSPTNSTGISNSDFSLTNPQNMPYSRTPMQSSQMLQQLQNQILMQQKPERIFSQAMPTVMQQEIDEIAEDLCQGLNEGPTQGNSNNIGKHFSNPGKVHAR

CC(C)C[C@H]1NC(=O)[C@H](CO)NC(=O)[C@H]2CCCN2C(=O)[C@H](CCC(N)=O)NC(=O)[C@H](Cc2c[nH]cn2)NC(=O)[C@H](Cc2ccc(O)cc2)NC(=O)c2cc3cc(c2)C(=O)NC[C@H](NC1=O)C(=O)N[C@@H](Cc1ccccc1)C(=O)N[C@H](Cc1ccc2ccccc2c1)C(=O)N[C@H](CCCNC(=N)N)C(=O)N[C@@H](CCCNC(=N)N)C(=O)N[C@H](CCCNC(=N)N)C(=O)N[C@@H](CCCNC(=N)N)C(=O)N[C@H](C(N)=O)CNC3=O [Peptide B7, TMA-Tyr-His-Gln-pro-Ser-leu-Dap-Phe-nal-arg-Arg-arg-Arg-Dap] (YHQ[dP]S[dL][Dap]F[d2Nal][dR]R[dR]R[Dap]-NH2; linker N-7-14 via Trimesoyl)
inhibition of E. chaffeensis infection ([1]; 10 μM, 2 days, vs DMSO control): significantly inhibited
dose dependence of inhibition of E. chaffeensis infection ([1]; 1, 5, and 10 μM): dose-dependent manner
Kd [2]: 6.5 ± 0.7 µM
E. chaffeensis infection (numbers and sizes of morulae) ([3]; THP-1 cells, Fig. S4 (with Figs. 5, S3)): significantly inhibited; also recorded: potent inhibition
cytotoxicity (cell lysis in treated groups) ([3]; THP-1 host cells): least cytotoxicity
localization of Etf-1 to E. chaffeensis inclusions ([4]; 10 μM from 3 h pi): significantly inhibited the localization
effect on mitochondrial localization of native Etf-1 ([4]; 10 μM): did not affect

Reference: article PMC9982066, “Inhibition of Ehrlichia chaffeensis infection by cell-permeable macrocyclic peptides that bind type IV secretion effector Etf-1” (PNAS Nexus, 2023)
